Data taken from patent publication US5516797A, “Immunosuppressive compounds” (Vertex Pharmaceuticals, Incorporated, priority 1994, dated 1996).

What was measured:
[1] = target: FK-506 binding protein (FKBP) (Homo sapiens, UniProt P62942); assay: Inhibition of PPIase (rotamase) enzyme activity of FKBP (apparent Ki); format: biochemical; conditions: substrate N-succinylAla-Ala-Pro-Phe-p-nitroanilide, chymotrypsin-coupled
Excerpt: The inhibition of the PPIase (rotamase) enzyme activity of the FKBP (apparent "Ki" values) can also be measured according to the methods described by either Harding, M. W. et al., Nature 341:758-760 (1989) or Siekierka, J. J. et al., Nature 341:755-757 (1989). The cis-trans isomerization of the proline-alanine peptide bond in a model substrate, N-succinylAla-Ala-Pro-Phe-p-nitroanilide, is monitored spectrophotometrically in a coupled assay with chymotrypsin, which releases 4-nitroanilide from the trans form of the substrate. Fischer, G. et al., Nature 337:476-478 (1989). The inhibitory effect of the addition of different concentrations of inhibitor on the extent of the reaction is determined, and analysis of the change in first order rate constant as a function of inhibitor concentration yields an estimate of the apparent Ki value.

[2] = system: human peripheral blood lymphocytes; assay: Mitogenesis assay OKT3: inhibition of proliferation of human PBLs; format: cell-based; conditions: Lymphocyte, OKT3 (10^-4 dilution final), 48 h incubation
Description: (§1) PMA and OKT3mitogens used to stimulate proliferation of human peripheral
(§2) blood lymphocytes (PBC). Compounds are evaluated on their ability to
(§3) Fresh peripheral blood lymphocytes (PBLs) from LeukoPak cells or whole blood from random normal blood donors (tested HIV-negative and hepatitis negative) are isolated and separated by density centrifugation over Histopaque 1077 (Sigma Chemical Co., St. Louis, Mo.). The murine CTLL cytotoxic T cell line and the human Jurkat T cell line are from ATCC (CTLL-2 ATCC TIB214, JURKAT CLONE E6-1 ATCC TIBl52). The human allogeneic B cell lines used for activation of the fresh PBLs are EBV-transformed lymphocytes from normal healthy adult donors with two completely different HLAhaplotypes. All cell lines were routinely tested for the presence of Mycolasma contamination using the GibcoMycotect test kit and are Mycolasma-free. Culture medium consksts of RPMI 1640 (Gibco, Grand Island, N.Y.) containing penicillin (50 U/ml) and streptomycin (50 μg/ml), L-glutamine 2 mM, 2 mercaptoethanol (5×10^-5), 10% heat-inactivated FCS and 10 mM HEPES.
(§4) All chemical stocks were dissolved in DMSO.
(§5) Mitogenesis Assays ("PMA" and "OKT3")
(§6) After 48 h incubation (37° C., 5% CO2), cells were pulsed with 1 μCi of ^3 H-thymidine, harvested 24 h later with a Tom Tek cell harvester, and counted in LKB β-scintillation counter.

[3] = system: PBLs stimulated with JVM human viral transformed B lymphoblastoid cells; assay: MLR bioassay JVM: inhibition of proliferation in mixed lymphocyte reaction; format: cell-based; conditions: Lymphoblastoid cell, pulsed on day 6, harvested 24 h later
Description: (§7) LB and JVMhuman viraltransformed B lymphoblastoid cell lines stimulated t
(§8) proliferate in a mixed lymphocyte reaction (MLR). The compounds are
(§9) evaluated on their ability to inhibit this proliferation.
as §3, §4
(§10) MLR Bioassays ("LB" and "JVM")
(§11) Antigen activated proliferation of PBLs in a primary mixed lymphocyte reaction was assessed in the presence or absence of different concentrations of tested compounds and control drugs. 5×10^4 fresh PBLs were stimulated with 5×10^3 of Mitomycin C treated-allogeneic EBV-transformed β-lymphoglastoid cells, IB and JVM, in a final volume of 200 μl per well in 96-well round-bottomed plates (Mishell, B. B. and S. M. Shiigi, Selected Methods in Cellular Immunology W. H. Freeman and Co., San Francisco, Calif. (1980); Nelson, P. A. et al., Transplantation 50:286 (1990)). Cultures were pulsed on day 6, harvested 24 h later and counted as in previous section.

[4] = system: human peripheral blood lymphocytes; assay: Mitogenesis assay PMA: inhibition of proliferation of human PBLs; format: cell-based; conditions: Lymphocyte, PMA (10 ng/ml) plus ionomycin (250 ng/ml), 48 h incubation
Description: as §1, §2, §3, §4, §5, §6

[5] = system: PBLs stimulated with LB human viral transformed B lymphoblastoid cells; assay: MLR bioassay LB: inhibition of proliferation in mixed lymphocyte reaction; format: cell-based; conditions: Lymphoblastoid cell, pulsed on day 6, harvested 24 h later
Description: as §7, §8, §9, §3, §4, §10, §11

Sequence of FK-506 binding protein (FKBP) (P62942 whole entry): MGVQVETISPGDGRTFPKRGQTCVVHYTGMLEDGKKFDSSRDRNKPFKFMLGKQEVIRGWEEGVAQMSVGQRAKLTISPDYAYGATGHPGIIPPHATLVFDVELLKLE

SMILES | Ki [1] [µM] | IC50 [2] [µM] | IC50 [3] [µM] | IC50 [4] [µM] | IC50 [5] [µM]
C=CCOC(=O)[C@@H]1CCCCN1C(=O)C(=O)c1ccccc1 [Compound 4] | 8 | – | – | – | –
COC(=O)C(=O)N1CCCC[C@H]1C(=O)OC/C(C)=C/c1ccc(OC)c(OC)c1 [Compound 37] | 10 | – | – | – | –
COC(=O)C(=O)N1CCCC[C@H]1C(=O)OC/C(C)=C/c1ccc(O)cc1 [Compound 38] | 60 | – | – | – | –
O=C(C(=O)N1CCC[C@H]1C(=O)OCc1ccccc1)c1ccccn1 [Compound 43] | 300 | – | – | – | –
O=C(C(=O)N1CCCC[C@H]1C(=O)OCCCCC1CCCCC1)c1ccccc1 [Compound 56] | – | > 10 | 6.5 | > 10 | > 10
COc1cc(C(=O)C(=O)N2CCCC[C@H]2C(=O)OCCCCC2CCCCC2)cc(OC)c1OC [Compound 57] | – | 4.5 | 8 | 4 | > 10
COc1cc(C(=O)C(=O)N2CCCC[C@H]2C(=O)OCc2cccc(Oc3ccccc3)c2)cc(OC)c1OC [Compound 61] | – | 8 | > 10 | 4 | > 10
O=C(C(=O)N1CCCC[C@H]1C(=O)OCCCCc1ccccc1)c1ccccc1 [Compound 64] | – | 6 | > 10 | 10 | > 10
O=C(C(=O)N1CCCC[C@H]1C(=O)OCCc1ccccc1)c1ccccc1 [Compound 68] | – | > 10 | > 10 | > 10 | > 10
COc1cc(C(=O)C(=O)N2CCCC[C@H]2C(=O)OCCCc2c[nH]c3ccccc23)cc(OC)c1OC [Compound 84] | – | 6 | > 10 | 4.5 | 6
COc1ccc(OC)c(/C=C/C(=O)N2CCC[C@H]2C(=O)OCc2ccccc2)c1 [Compound 113] | 10 | – | – | – | –
COc1cc(OC)c(OC)cc1/C=C/C(=O)N1CCC[C@H]1C(=O)OCc1ccccc1 [Compound 114] | 25 | – | – | – | –
O=C(OCc1ccccc1)[C@@H]1CCCCN1C(=O)/C=C/c1cccnc1 [Compound 121] | 25 | – | – | – | –
C=CC(=O)N1CCCC[C@H]1C(=O)OCc1ccccc1 [Compound 122] | 300 | – | – | – | –
O=C(OCc1ccccc1)[C@@H]1CCCCN1C(=O)/C=C/c1ccccc1 [Compound 123] | 11 | – | – | – | –
C[C@@H](C(=O)OCc1ccccc1)N(C)C(=O)/C=C/c1ccc2c(c1)OCO2 [Compound 131] | 50 | – | – | – | –
C[C@H](NC(=O)/C=C/c1ccc2c(c1)OCO2)C(=O)OCc1ccccc1 [Compound 132, (S)-3-(3,4-Methylenedioxyphenyl)-prop-2-enoylalanine benzyl ester] | 60 | – | – | – | –

Second part, led by results:

Ki [1] [µM] | SMILES | IC50 [2] [µM] | IC50 [3] [µM] | IC50 [4] [µM] | IC50 [5] [µM]
0.9 | O=C(C(=O)N1CCCC[C@H]1C(=O)Oc1cccc2ccccc12)c1ccccc1 [Compound 5] | > 10 | > 10 | > 10 | > 10
0.9 | CC(C)CC(=O)C(=O)N1CCCC[C@H]1C(=O)OCc1ccccc1 [Compound 7] | > 10 | > 10 | > 10 | > 10
1.5 | C/C(=C\c1ccccc1)COC(=O)[C@@H]1CCCCN1C(=O)C(=O)c1ccccc1 [Compound 23] | > 10 | > 10 | > 10 | > 10
6 | C/C(=C\c1ccc(O)cc1)COC(=O)[C@@H]1CCCCN1C(=O)C(=O)c1ccccc1 [Compound 24] | – | – | – | –
0.6 | C/C(=C\[C@H]1CC[C@@H](O)CC1)COC(=O)[C@@H]1CCCCN1C(=O)C(=O)c1ccccc1 [Compound 25, (E)-3-[cis-4-(hydroxycyclohexyl)]-2-methylprop-2-enyl N-(phenylglyoxyl)-pipecolate] | > 10 | > 10 | > 10 | > 10
0.5 | C/C(=C\[C@H]1CC[C@H](O)CC1)COC(=O)[C@@H]1CCCCN1C(=O)C(=O)c1ccccc1 [Compound 26] | 6.5 | > 10 | > 10 | > 10
3 | O=C(C(=O)N1CCCC[C@H]1C(=O)OCc1ccccc1)c1ccc(F)c(F)c1 [Compound 44] | – | – | – | –
1 | COc1ccc(/C=C/C(=O)C(=O)N2CCCC[C@H]2C(=O)OCc2ccccc2)cc1 [Compound 45] | > 10 | > 10 | > 10 | > 10
5 | O=C(C(=O)N1CCCC[C@H]1C(=O)OCc1ccccc1)c1ccccc1C(F)(F)F [Compound 55] | – | – | – | –
5 | O=C(C(=O)N1CCCC[C@H]1C(=O)OCc1ccc(-c2ccccc2)cc1)c1ccccc1 [Compound 58] | – | – | – | –
2 | COc1cc(C(=O)C(=O)N2CCCC[C@H]2C(=O)OCc2ccc(-c3ccccc3)cc2)cc(OC)c1OC [Compound 59] | – | – | – | –
0.56 | CCOc1cccc(C(=O)C(=O)N2CCCC[C@H]2C(=O)OCc2ccccc2)c1 [Compound 60] | > 10 | > 10 | > 10 | > 10
1 | C=CCOc1cccc(C(=O)C(=O)N2CCCC[C@H]2C(=O)OCc2ccccc2)c1 [Compound 65] | > 10 | > 10 | > 10 | > 10
0.5 | CC(C)Oc1cccc(C(=O)C(=O)N2CCCC[C@H]2C(=O)OCc2ccccc2)c1 [Compound 66] | > 10 | > 10 | > 10 | > 10
1 | CCC(C)C(=O)C(=O)N1CCCC[C@H]1C(=O)OCc1ccccc1 (some centres unmarked) [Compound 67] | > 10 | > 10 | > 10 | > 10
0.5 | O=C(C(=O)N1CCCC[C@H]1C(=O)OCCCCCCc1ccccc1)c1ccccc1 [Compound 69] | > 10 | > 10 | 6.1 | > 10
0.07 | COc1cc(C(=O)C(=O)N2CCCC[C@H]2C(=O)OCCCCCc2ccccc2)cc(OC)c1OC [Compound 70] | 4.5 | 9 | 7 | > 10
0.8 | COc1cc(C(=O)C(=O)N2CCCC[C@H]2C(=O)OCc2ccc(Oc3ccccc3)cc2)cc(OC)c1OC [Compound 73] | > 10 | 6 | 8 | 4.5
0.36 | CCCCOc1cccc(C(=O)C(=O)N2CCCC[C@H]2C(=O)OCc2ccccc2)c1 [Compound 75] | > 10 | > 10 | 8 | 9
0.1 | CC(C)Oc1cccc(C(=O)C(=O)N2CCCC[C@H]2C(=O)OCCCCc2ccccc2)c1 [Compound 76] | 10 | > 10 | 5 | 9
1.4 | COc1cc(C(=O)C(=O)N2CCCC[C@H]2C(=O)OCc2ccc(I)cc2)cc(OC)c1OC [Compound 78] | > 10 | > 10 | > 10 | > 10
2.5 | O=C(OCc1ccccc1)[C@@H]1CCCCN1C(=O)/C=C/c1ccco1 [Compound 118] | – | – | – | –
2.5 | O=C(OCc1ccccc1)[C@@H]1CCCCN1C(=O)/C=C/c1ccoc1 [Compound 119] | – | – | – | –
